One data set has as its system guinea pig trachea. Put plainly: Bronchodilator activity in the guinea pig isolated tracheal ring preparation. As to conditions: 60 min, methacholine (1 μM) contracted, mean±s.e.mean. It is filed as cell-based. The method, then:
Evaluation of Bronchodilator Activity in the Guinea Pig Isolated Tracheal Ring Preparation
Guinea pigs (300-500 g) were killed by cervical dislocation and the trachea was isolated. The trachea was cut into segments 2-3 cartilage rings in width and suspended in 10 ml organ baths in modified Krebs' solution (mM; NaCl, 90; NaHCO3, 45; KCl, 5; MgSO4.7H2O, 0.5; Na2HPO4.2H2O, 1; CaCl2, 2.25; glucose, 10; pH 7.4 gassed with 5% CO2, 95% O2 at 37° C.). The tracheal rings were attached to an isometric force transducer for the measurement of isometric tension. The tissues were washed and a force of 1 g was applied to each tissue. The rings were contracted with methacholine (1 μM). Once the contraction had reached a plateau, vehicle (0.01% DMSO in distilled H2O), compound W (1 nM or 3 nM), compound X (1 nM), compound Y (1 nM), a combination of compound W (3 nM) and compound X (1 nM), or a combination of compound W (1 nM) and compound Y (1 nM) was added and the tissue left for 60 min. The tension was measured in each ring at 60 min following compound addition and was expressed as a % relaxation of the constriction to methacholine (1 μM) (mean±s.e.mean). Data were collected using the Chart 4 software (ADInstruments, Charlgrove, UK).

Data set [1] is described as follows: Gravimetric Vapour Sorption (GVS). In kind it is physicochemical. As to conditions: at 80% RH (±0.2%). On the procedure:
Instrument Details: • X-Ray Powder Diffraction (XRPD)—PANalytical X'Pert machine in 2Ø-Ø configuration or a PANalytical Cubix machine in Ø-Ø configuration over the scan range 2° to 40° 2Ø with 100-second exposure per 0.02° increment. The X-rays were generated by a copper long-fine focus tube operated at 45 kV and 40 mA. […] The Data was collected on zero background holders on which ˜2 mg of the compound was placed. The holder was made from a single crystal of silicon, which had been cut along a non-diffracting plane and then polished on an optically flat finish. The X-rays incident upon this surface were negated by Bragg extinction. • Differential Scanning Calorimetry (DSC) thermograms were measured using a TA Q1000 Differential Scanning Calorimeter, with aluminium pans and pierced lids. The sample weights varied between 0.5 to 5 mg. The procedure was carried out under a flow of nitrogen gas (50 mL/min) and the temperature studied from 30 to 230° C. at a constant rate of temperature increase of 10° C. per minute. • Gravimetric Vapour Sorption (GVS) profiles were measured using a Surface Measurements Systems Dynamic Vapour Sorption DVS-1 or a DVS Advantage instrument. The solid sample ca. 1-5 mg was placed into a glass vessel and the weight of the sample was recorded during a dual cycle step method (40 to 90 to 0 to 90 to 0% relative humidity (RH), in steps of 10% RH).

Another data set has as its target T1, β2 adrenoceptor (Homo sapiens, UniProt P07550).
T1 construct: Adherent H292 cells were removed from tissue culture flasks; endogenous in cells; host or cells: H292 cells
Put plainly: Adrenergic β mediated cAMP production in H292 cells (AlphaScreen). It is filed as cell-based. As to conditions: Intrinsic Activity as a fraction relative to the maximum activity of formoterol. The method, then: Adrenergic β Mediated cAMP Production.
Cell preparation. H292 cells were grown in 225 cm2 flasks incubator at 37° C., 5% CO2 in RPMI medium containing, 10% (v/v) FBS (foetal bovine serum) and 2 mM L-glutamine.
Experimental Method. Adherent H292 cells were removed from tissue culture flasks by treatment with Accutase™ cell detachment solution for 15 minutes. Flasks were incubated for 15 minutes in a humidified incubator at 37° C., 5% CO2. Detached cells were re-suspended in RPMI media (containing 10% (v/v) FBS and 2 mM L-glutamine) at 0.05×10^6 cells per mL. 5000 cells in 100 μL were added to each well of a tissue-culture-treated 96-well plate and the cells incubated overnight in a humidified incubator at 37° C., 5% CO2. […]
AlphaScreen™ cAMP detection. The concentration of cAMP (cyclic adenosine monophosphate) in the cell lysate was determined using AlphaScreen™ methodology. […] The AlphaScreen™ signal was measured using an EnVision spectrophotometer (Perkin-Elmer Inc.) with the recommended manufacturer's settings. cAMP concentrations were determined by reference to a calibration curve determined in the same experiment using standard cAMP concentrations. […] Intrinsic Activity was expressed as a fraction relative to the maximum activity determined for formoterol in each experiment. […]

Where a name gives a salt, the structure may show the parent alone.

T1 sequence (P07550 whole entry): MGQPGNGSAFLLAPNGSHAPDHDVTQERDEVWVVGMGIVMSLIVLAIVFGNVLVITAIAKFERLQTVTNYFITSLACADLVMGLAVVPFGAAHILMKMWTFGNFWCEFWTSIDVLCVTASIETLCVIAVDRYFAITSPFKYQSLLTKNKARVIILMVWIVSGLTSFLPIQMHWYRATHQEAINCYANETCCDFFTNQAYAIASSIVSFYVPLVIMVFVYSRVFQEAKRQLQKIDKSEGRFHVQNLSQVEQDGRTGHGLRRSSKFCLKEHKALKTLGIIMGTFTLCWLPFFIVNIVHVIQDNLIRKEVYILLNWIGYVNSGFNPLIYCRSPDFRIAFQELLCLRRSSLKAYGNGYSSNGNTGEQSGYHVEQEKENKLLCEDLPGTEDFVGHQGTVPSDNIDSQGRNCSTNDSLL

Consider `C[C@@](C(=O)O[C@H]1C[N+]2(CCc3ccc(F)cc3)CCC1CC2)(c1ccccc1)N1CCCCC1.[Br-]` [compound Y, (R)-1-[2-(4-Fluoro-phenyl)-ethyl]-3-((S)-2-phenyl-2-piperidin-1-yl-propionyloxy)-1-azonia-bicyclo[2.2.2]octane bromide], for which, in the data set on guinea pig trachea (1 nM, n=6, FIG. 30), the percentage relaxation worked out at 17±3.4%.

Compound `C[C@@](C(=O)O[C@H]1C[N+]2(CCc3ccc(F)cc3)CCC1CC2)(c1ccccc1)N1CCCCC1.[Br-]` [Preparation 4 bromide Form C, (R)-1-[2-(4-Fluoro-phenyl)-ethyl]-3-((S)-2-phenyl-2-piperidin-1-yl-propionyloxy)-1-azonia-bicyclo[2.2.2]octane bromide (Form C)] showed a GVS weight increase in data set [1] of 4 % w/w.

On to `C[N+](C)(CCOCc1ccc(Cl)cc1)Cc1cnc([C@](O)(c2ccccc2)C2CCCCC2)o1.C[N+](C)(CCOCc1ccc(Cl)cc1)Cc1cnc([C@](O)(c2ccccc2)C2CCCCC2)o1.O=S(=O)([O-])c1cccc2c(S(=O)(=O)[O-])cccc12` [compound X, [2-(4-Chloro-benzyloxy)-ethyl]-[2-((R)-Cyclohexyl-hydroxy-phenyl-methyl)-oxazol-5-ylmethyl]-dimethyl-ammonium hemi-napadisylate salt, reference compound], for which, in the data set with guinea pig trachea (1 nM, n=4, FIG. 29), the percentage relaxation came out at 1±0.5%.

On to “N-Cyclohexyl-N^3-[2-(3-fluorophenyl)ethyl]-N-(2-{[2-(4-hydroxy-2-oxo-2,3-dihydro-1,3-benzothiazol-7-yl)ethyl]amino}ethyl)-β-alaninamide di-D-Mandelate salt [Preparation 3 (Form A)]”, for which the GVS weight increase in data set [1] is given as 1 % w/w. The percentage relaxation came to 48±3.9% in the data set on guinea pig trachea (1 nM, n=6, FIG. 30) and 46±10.7% in the data set on guinea pig trachea (3 nM, n=4, FIG. 29).

On to `C[C@@](C(=O)O[C@H]1C[N+]2(CCc3ccc(F)cc3)CCC1CC2)(c1ccccc1)N1CCCCC1.Cc1ccc(S(=O)(=O)[O-])cc1` [Preparation 16, (R)-1-(4-fluorophenethyl)-3-((S)-2-phenyl-2-(piperidin-1-yl)propanoyloxy)-1-azoniabicyclo[2.2.2]octane 4-methylbenzenesulphonate], for which, in data set [1], the GVS weight increase was found to be 0.1 % w/w.

In the case of `C[C@@](C(=O)O[C@H]1C[N+]2(CCc3ccc(F)cc3)CCC1CC2)(c1ccccc1)N1CCCCC1.[Br-]` [Preparation 4 bromide Form A, (R)-1-[2-(4-Fluoro-phenyl)-ethyl]-3-((S)-2-phenyl-2-piperidin-1-yl-propionyloxy)-1-azonia-bicyclo[2.2.2]octane bromide (Form A)], the GVS weight increase in data set [1] is recorded as 0.1 % w/w.

With `O=C(CCNCCc1cccc(F)c1)N(CCNCCc1ccc(O)c2[nH]c(=O)sc12)C1CCCCC1` [Preparation 2, N-Cyclohexyl-N^3-[2-(3-fluorophenyl)ethyl]-N-(2-{[2-(4-hydroxy-2-oxo-2,3-dihydro-1,3-benzothiazol-7-yl)ethyl]amino}ethyl)-β-alaninamide dihydrobromide salt], the “β2 Int Act” value at β2 adrenoceptor was 0.85.

Values taken from patent publication US20100144606A1, “COMBINATION 408” (AstraZeneca AB, priority 2008, published 2010).
